Source: patent publication US9073853B2, “Cycloalkane carboxylic acid derivatives as CXCR3 receptor antagonists” (Sanofi, priority 2011, dated 2015)

The compounds below were run against human CXCR3-A receptor (Homo sapiens (Human), UniProt P49682) (assay: 125I-CXCL10 competition radioligand binding assay). Conditions: displacement of 125I-CXCL10 from membranes of CHO cells expressing human recombinant CXCR3-A.
Sequence of human CXCR3-A receptor (P49682 whole entry): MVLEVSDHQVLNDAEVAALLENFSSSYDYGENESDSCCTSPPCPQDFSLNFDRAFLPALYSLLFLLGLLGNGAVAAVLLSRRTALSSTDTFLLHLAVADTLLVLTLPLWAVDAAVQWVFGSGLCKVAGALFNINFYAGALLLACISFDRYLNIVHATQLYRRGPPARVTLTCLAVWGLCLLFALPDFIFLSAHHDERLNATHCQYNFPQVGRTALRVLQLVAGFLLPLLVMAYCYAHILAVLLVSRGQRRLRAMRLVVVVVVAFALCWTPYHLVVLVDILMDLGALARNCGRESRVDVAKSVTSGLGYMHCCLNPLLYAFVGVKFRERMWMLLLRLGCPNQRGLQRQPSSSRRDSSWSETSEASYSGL
Method: IC50 values were determined for the test compounds and used to explore the structure-activity relationships (SAR). […] This cell line was registered in Sanofi-Aventis cell line bank. […] Cell suspension was diluted with PBS and cells were collected with centrifugation at 230 g for 10 minutes at 10° C. with a Juan centrifuge. […] The supernatant was carefully collected and centrifuged at 100,000×g for 60 min at 4° with a Beckman Avanti J30 centrifuge. […] Protein concentration was determined with Bio-Rad protein assay (Cat No 500-0006). Membrane aliquots were stored at -80° C. […] The composition of the binding assay buffer was determined in a course of detailed optimization procedure. […] Binding reaction was initiated by adding of membranes (10-20 μg proteins, approximately 5×10^5 cell equivalents) to the reaction mixture. After 60 minutes of incubation at 25° C. the reaction was terminated by rapid filtration over GF/B glass fiber filters that were pre-soaked with 0.5% polyethyleneimine (Fluka Analytical, P3143) for 1 hour, using a Skatron cell harvester device. Filters then were washed with 8 ml of ice-cold wash buffer (modified binding buffer in which BSA was omitted and the concentration of NaCl was adjusted to 500 mM concentration). The radioactivity retained on the filters was measured by a Wizard 1470 Automatic Gamma counter. Test compounds were dissolved prior to the binding assay at a concentration of 10 mM in DMSO. Stock solutions were stored at -20° C. for not longer than 3 months. […] Before adding these solutions of test compound to the binding reaction mixture, an intermediate dilution procedure was applied, in which 30 μL of each solution sample was transferred into a dilution tube containing 970 μL of binding assay buffer. […] The IC50 values and Hill slopes for competition binding data were obtained using nonlinear four-parametric curve fitting method.
Work on `COc1cc(CN(C[C@H]2CC[C@H](C(=O)O)CC2)[C@@H](C)c2ccc(Cl)cc2)ccc1OCCN1C(=O)COC1=O` [Example 36, trans-4-[([(S)-1-(4-Chloro-phenyl)-ethyl]-{4-[2-(2,4-dioxo-oxazolidin-3-yl)-ethoxy]-3-methoxy-benzyl}-amino)-methyl]-cyclohexanecarboxylic acid] yielded an IC50 of 28 nM. Compound `COc1cc(CN(C[C@H]2CC[C@H](C(=O)O)CC2)[C@@H](C)c2ccc(Cl)cc2)ccc1OCCn1c(=O)ccn(C)c1=O` [Example 37, trans-4-[([(S)-1-(4-Chloro-phenyl)-ethyl]-{3-methoxy-4-[2-(3-methyl-2,6-dioxo-3,6-dihydro-2H-pyrimidin-1-yl)-ethoxy]-benzyl}-amino)-methyl]-cyclohexanecarboxylic acid] has an IC50 of 76 nM. Compound `COc1cc(CN(C[C@H]2CC[C@H](C(=O)O)CC2)C(C)c2ccc3c(c2)CCO3)ccc1OCCN1C(=O)CCCC1=O` (stereo partly drawn) [Example 38, trans-4-[([1-(2,3-Dihydro-benzofuran-5-yl)-ethyl]-{4-[2-(2,6-dioxo-piperidin-1-yl)-ethoxy]-3-methoxy-benzyl}-amino)-methyl]-cyclohexanecarboxylic acid] has an IC50 of 163 nM. `Cc1cc(CN(C[C@H]2CC[C@H](C(=O)O)CC2)[C@@H](C)c2ccc(Cl)cc2)ccc1OCCN1C(=O)CN(C)C1=O` [Example 39, trans-4-[([(S)-1-(4-Chloro-phenyl)-ethyl]-{3-methyl-4-[2-(3-methyl-2,5-dioxo-imidazolidin-1-yl)-ethoxy]-benzyl}-amino)-methyl]-cyclohexanecarboxylic acid] was tested, and the IC50 was 99 nM. For `COc1cc(CN(CC2CCCC(C(=O)O)C2)C(C)c2ccc3c(c2)CCO3)ccc1OCCN1C(=O)CCC1=O` (centres unmarked) [Example 41, 3-[([1-(2,3-Dihydro-benzofuran-5-yl)-ethyl]-{4-[2-(2,5-dioxo-pyrrolidin-1-yl)-ethoxy]-3-methoxy-benzyl}-amino)-methyl]-cyclohexanecarboxylic acid], the IC50 was 131 nM. With `COc1cc(CN(C[C@H]2CC[C@H](C(=O)O)CC2)C2CCc3cc(Cl)c(C)cc32)ccc1OCCN1C(=O)CCC1=O` (stereo partly drawn) [Example 42, trans-4-[((5-Chloro-6-methyl-indan-1-yl)-{4-[2-(2,5-dioxo-pyrrolidin-1-yl)-ethoxy]-3-methoxy-benzyl}-amino)-methyl]-cyclohexanecarboxylic acid] the IC50 was 87 nM. In the case of `COc1cc(CN(C[C@H]2CC[C@H](C(=O)O)CC2)C2CCc3c2ccc(Cl)c3C)ccc1OCCN1C(=O)CCC1=O` (stereo partly drawn) [Example 43, trans-4-[((5-Chloro-4-methyl-indan-1-yl)-{4-[2-(2,5-dioxo-pyrrolidin-1-yl)-ethoxy]-3-methoxy-benzyl}-amino)-methyl]-cyclohexanecarboxylic acid], the IC50 is reported as 68 nM. In the case of `COc1cc(CN(C[C@H]2CC[C@H](C(=O)O)CC2)C2CCc3cc(Cl)ccc32)ccc1CCCN1C(=O)CCC1=O` (stereo partly drawn) [Example 44, trans-4-[((5-Chloro-indan-1-yl)-{4-[3-(2,5-dioxo-pyrrolidin-1-yl)-propyl]-3-methoxy-benzyl}-amino)-methyl]-cyclohexanecarboxylic acid], the IC50 is reported as 410 nM. Work on `CC(c1ccc2c(c1)CCO2)N(Cc1ccc(CCCN2C(=O)CCC2=O)c(Cl)c1)C[C@H]1CC[C@H](C(=O)O)CC1` (stereo partly drawn) [Example 47, trans-4-({{3-Chloro-4-[3-(2,5-dioxo-pyrrolidin-1-yl)-propyl]-benzyl}-[1-(2,3-dihydro-benzofuran-5-yl)-ethyl]-amino}-methyl)-cyclohexanecarboxylic acid] yielded an IC50 of 800 nM. Work on `COc1cc(CN(C[C@H]2CC[C@H](C(=O)O)CC2)C2CCc3cc(Cl)ccc32)ccc1OCCn1c(=O)ccn(C)c1=O` (stereo partly drawn) [Example 48, trans-4-[((5-Chloro-indan-1-yl)-{3-methoxy-4-[2-(3-methyl-2,6-dioxo-3,6-dihydro-2H-pyrimidin-1-yl)-ethoxy]-benzyl}-amino)-methyl]-cyclohexanecarboxylic acid] yielded an IC50 of 409 nM. `COc1cc(CN(C[C@H]2CC[C@H](C(=O)O)CC2)C(C)c2ccc3c(c2)CCO3)ccc1C1CC1CN1C(=O)CCC1=O` (stereo partly drawn) [Example 49, trans-4-[([1-(2,3-Dihydro-benzofuran-5-yl)-ethyl]-{4-[2-(2,5-dioxo-pyrrolidin-1-ylmethyl)-cyclopropyl]-3-methoxy-benzyl}-amino)-methyl]-cyclohexanecarboxylic acid] gave an IC50 of 746 nM. `COc1cc(CN(C[C@H]2CC[C@H](C(=O)O)CC2)C2CCc3cc(Cl)ccc32)ccc1CCCN1C(=O)CN(C)C1=O` (stereo partly drawn) [Example 50, trans-4-[((5-Chloro-indan-1-yl)-{3-methoxy-4-[3-(3-methyl-2,5-dioxo-imidazolidin-1-yl)-propyl]-benzyl}-amino)-methyl]-cyclohexanecarboxylic acid] showed an IC50 of 1240 nM. `COc1cc(CN(C[C@H]2CC[C@H](C(=O)O)CC2)[C@@H](C)c2ccc(Cl)cc2)ccc1CCCN1C(=O)CN(C)C1=O` [Example 51, trans-4-[([(S)-1-(4-Chloro-phenyl)-ethyl]-{3-methoxy-4-[3-(3-methyl-2,5-dioxo-imidazolidin-1-yl)-propyl]-benzyl}-amino)-methyl]-cyclohexanecarboxylic acid] gave an IC50 of 157 nM. `COc1cc(CN(C[C@H]2CC[C@H](C(=O)O)CC2)C2CCc3cc(Cl)ccc32)ccc1OCCN1C(=O)CN(C)C1=O` (stereo partly drawn) [Example 52, trans-4-[((5-Chloro-indan-1-yl)-{3-methoxy-4-[2-(3-methyl-2,5-dioxo-imidazolidin-1-yl)-ethoxy]-benzyl}-amino)-methyl]-cyclohexanecarboxylic acid] showed an IC50 of 177 nM. Work on `COc1cc(CN(C[C@H]2CC[C@H](C(=O)O)CC2)[C@@H](C)c2ccc(Cl)cc2)ccc1OCCN1C(=O)CN(C)C1=O` [Example 53, trans-4-[([(S)-1-(4-Chloro-phenyl)-ethyl]-{3-methoxy-4-[2-(3-methyl-2,5-dioxo-imidazolidin-1-yl)-ethoxy]-benzyl}-amino)-methyl]-cyclohexanecarboxylic acid] yielded an IC50 of 789 nM. In the case of `Cc1cc(CN(C[C@H]2CC[C@H](C(=O)O)CC2)[C@@H](C)c2ccc(Cl)cc2)ccc1CCCN1C(=O)CCC1=O` [Example 54, trans-4-[([(S)-1-(4-Chloro-phenyl)-ethyl]-{4-[3-(2,5-dioxo-pyrrolidin-1-yl)-propyl]-3-methyl-benzyl}-amino)-methyl]-cyclohexanecarboxylic acid], the IC50 is reported as 482 nM. With `COc1cc(CN(C[C@H]2CC[C@H](C(=O)O)CC2)[C@@H](C)c2ccc(Cl)cc2)ccc1C#CCN1C(=O)CCC1=O` [Example 55, trans-4-[([(S)-1-(4-Chloro-phenyl)-ethyl]-{4-[3-(2,5-dioxo-pyrrolidin-1-yl)-prop-1-ynyl]-3-methoxy-benzyl}-amino)-methyl]-cyclohexanecarboxylic acid] the IC50 was 6600 nM. `COc1cc(CN(C[C@H]2CC[C@H](C(=O)O)CC2)[C@@H](C)c2ccc(Cl)cc2)ccc1CCCN1C(=O)CCC1=O` [Example 56, trans-4-[([(S)-1-(4-Chloro-phenyl)-ethyl]-{4-[3-(2,5-dioxo-pyrrolidin-1-yl)-propyl]-3-methoxy-benzyl}-amino)-methyl]-cyclohexanecarboxylic acid] gave an IC50 of 215 nM. With `Cc1cc(CN(C[C@H]2CC[C@H](C(=O)O)CC2)C2CCc3cc(Cl)ccc32)ccc1OCCN1C(=O)CN(C)C1=O` (stereo partly drawn) [Example 57, trans-4-[((5-Chloro-indan-1-yl)-{3-methyl-4-[2-(3-methyl-2,5-dioxo-imidazolidin-1-yl)-ethoxy]-benzyl}-amino)-methyl]-cyclohexanecarboxylic acid] the IC50 was 200 nM. With `Cc1cc(CN(C[C@H]2CC[C@H](C(=O)O)CC2)[C@@H](C)c2ccc(Cl)cc2)ccc1OCCn1c(=O)ccn(C)c1=O` [Example 58, trans-4-[([(S)-1-(4-Chloro-phenyl)-ethyl]-{3-methyl-4-[2-(3-methyl-2,6-dioxo-3,6-dihydro-2H-pyrimidin-1-yl)-ethoxy]-benzyl}-amino)-methyl]-cyclohexanecarboxylic acid] the IC50 was 169 nM. Work on `COc1cc(CN(C[C@H]2CC[C@H](C(=O)O)CC2)C(C)c2ccc3c(c2)CCO3)ccc1OCCn1c(=O)ccn(C)c1=O` (stereo partly drawn) [Example 59, trans-4-[([1-(2,3-Dihydro-benzofuran-5-yl)-ethyl]-{3-methoxy-4-[2-(3-methyl-2,6-dioxo-3,6-dihydro-2H-pyrimidin-1-yl)-ethoxy]-benzyl}-amino)-methyl]-cyclohexanecarboxylic acid] yielded an IC50 of 195 nM. `Cc1cc(CN(C[C@H]2CC[C@H](C(=O)O)CC2)C(C)c2ccc3c(c2)CCO3)ccc1OCCn1c(=O)ccn(C)c1=O` (stereo partly drawn) [Example 60, trans-4-[([1-(2,3-Dihydro-benzofuran-5-yl)-ethyl]-{3-methyl-4-[2-(3-methyl-2,6-dioxo-3,6-dihydro-2H-pyrimidin-1-yl)-ethoxy]-benzyl}-amino)-methyl]-cyclohexanecarboxylic acid] was tested, and the IC50 was 345 nM. `Cc1cc(CN(C[C@H]2CC[C@H](C(=O)O)CC2)C(C)c2ccc(C#N)cc2)ccc1OCCN1C(=O)CCC1=O` (stereo partly drawn) [Example 61, trans-4-[([1-(4-Cyano-phenyl)-ethyl]-{4-[2-(2,5-dioxo-pyrrolidin-1-yl)-ethoxy]-3-methyl-benzyl}-amino)-methyl]-cyclohexanecarboxylic acid] gave an IC50 of 102 nM.
